The values that follow come from US20240344241A1, “PROTEINACEOUS MOLECULES AND USES THEREFOR” (THE UNIVERSITY OF QUEENSLAND, priority 2021, published 2024).

SMILES strings stand for the structures. Bridge positions count the residues as written; N and C are the ends. Peptide text beside a SMILES is read from it.

As usually defined, the Ki is a dissociation constant, usually derived from enzyme kinetics or from competition with a known ligand. Low values mean a stronger hold on the target, high ones a looser hold on the target.

The assay deals with T1, Human β-FXIIa (Homo sapiens, UniProt P00748).
T1 construct: Human β-FXIIa was obtained from Molecular Innovations, together with human FXa, human FXIa, human α-thrombin, and human plasma kallikrein; purchased Molecular Innovations; host or cells: purified from human plasma
T1 sequence (P00748 373-615 limits assumed, other chains not shown): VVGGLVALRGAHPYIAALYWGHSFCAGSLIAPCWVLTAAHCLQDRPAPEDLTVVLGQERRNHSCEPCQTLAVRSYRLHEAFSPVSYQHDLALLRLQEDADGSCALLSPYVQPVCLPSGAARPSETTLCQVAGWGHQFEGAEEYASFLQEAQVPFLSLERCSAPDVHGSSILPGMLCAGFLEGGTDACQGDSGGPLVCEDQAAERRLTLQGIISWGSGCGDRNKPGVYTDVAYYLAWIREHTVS
The assay is described as follows: FXIIa competitive inhibition assay, fluorescent substrate Boc-QGR-MCA. The assay is classed as biochemical. An excerpt:
Cyclic [I7F]MCoFx1 (also referred to as cyclic MCoFx6) was synthesized using solid phase peptide synthesis ([[…]] [SEQ ID NO: 97]). For this inhibitor, Tyr33 was mutated back to serine as per the original mRNA display screen (FIG. 1). Cyclic MCoFx6 was screened using a competitive inhibition assay, with the substrate being changed from a colorimetric substrate (Ac-QRFR-pNA in the data of Tables 7 and 10) to a fluorescent substrate (Boc-QGR-MCA) to allow the assay to be run with a lower concentration of enzyme. The assay was performed as described for Examples 2 and 3, except that the FXIIa concentration was 0.5 nM and the substrate concentration was 50 μM (KM=187 μM).
The new variants were screened using competitive inhibition assays, with the substrate being changed from a colorimetric substrate (Ac-QRFR-pNA in the data of Tables 7 and 10) to a fluorescent substrate (Boc-QGR-MCA) to allow the assay to be run with a lower concentration of enzyme. Assays were performed as described for Examples 2 and 3, except that the FXIIa concentration was 0.5 nM and the substrate concentration was 50 μM (KM=187 μM). […] The effect of amino acid substitutions within loop 2 (Arg12, Arg13), loop 5 (Ala25, Arg27) or loop 6 (Asp34) on the activity of cyclic MCoFx7 against FXIIa was determined (refer to Table 14). […] Additionally, mutating Arg to Glu (reversing the side chain charge) only led to two-fold weaker activity. The adjacent residue Arg13 could also be mutated to Lys with no change in activity. Within loop 5, mutating Ala25 to Lys produced a slight gain in activity, whereas the Ala to Pro mutation led to a slight decrease in activity. Both mutations at Arg27 led to losses in activity in the order of two-fold (His) or 3.2-fold (Gly).
The activity of acyclic and cyclic MCoFx1-5 and analogues thereof was assessed in competitive inhibition assays, as previously described in Swedberg et al. (2016) J Med Chem, 59: 7287-7292. Human β-FXIIa was obtained from Molecular Innovations, together with human FXa, human FXIa, human α-thrombin, and human plasma kallikrein. Human cationic trypsin and human plasmin were obtained from Sigma-Aldrich, and recombinant human matriptase was sourced from R&D Systems. Recombinant human urokinase (uPA) and recombinant human tissue plasminogen activator (tPA) were expressed in Expi293 cells, as previously described in Li et al. (2019) Chembiochem, 20: 46-50. FXIIa inhibition assays were performed in clear, low-binding 96-well plates using 250 μL (final volume) of assay buffer (0.1 M Tris-HCl pH 8.0, 0.1 M NaCl, 10 mM CaCl2 and 0.005% Triton X-100). Inhibitors were serially diluted and incubated with 10 nM FXIIa at room temperature to reach equilibrium. After adding 100 μM Ac-QRFR-pNA substrate (KM=162 μM), enzymatic activity was measured by monitoring release of the pNA moiety using a TECAN infinite M1000 Pro plate reader (A=405 nm, reading interval, 10 s; assay time course, 7 min). Assays were conducted in three times in duplicate. Substrate kinetic constants (Michaelis-Menten) and inhibition constants (Morrison K) were determined by non-linear regression using Prism 7 (GraphPad). Selectivity assays with off-target proteases were performed in a similar way, except that different concentrations of enzyme and substrate were used, as indicated in Table 16. For assays using a fluorescent substrate (peptide-4-methylcoumaryl-7-amide, MCA), black low-binding 96-well plates were used and activity was measured using a TECAN infinite M1000 pro plate reader (λex 360 nm, λem 460 nm, reading interval, 30 s; assay time course, 5-30 min).
`CC[C@H](C)[C@@H]1NC(=O)CNC(=O)CNC(=O)[C@H](CC(=O)O)NC(=O)[C@H](CO)NC(=O)CNC(=O)[C@H](CO)NC(=O)CNC(=O)[C@@H]2CSSC[C@@H]3NC(=O)[C@H](CC(=O)O)NC(=O)[C@H](CO)NC(=O)[C@H](CC(=O)O)NC(=O)[C@H](CCCNC(=N)N)NC(=O)[C@H](CCCNC(=N)N)NC(=O)[C@@H]4CSSC[C@H](NC(=O)[C@H]([C@@H](C)CC)NC(=O)[C@H](CSSC[C@H](NC1=O)C(=O)N1CCC[C@H]1C(=O)N[C@@H](CCCNC(=N)N)C(=O)N[C@@H]([C@@H](C)CC)C(=O)NCC(=O)N[C@@H](CCCNC(=N)N)C(=O)N[C@@H](CC(C)C)C(=O)N4)NC(=O)[C@H](C)NC(=O)CNC(=O)[C@@H]1CCCN1C3=O)C(=O)N[C@@H](CCCNC(=N)N)C(=O)N[C@@H](C)C(=O)N[C@@H]([C@@H](C)O)C(=O)N[C@@H](Cc1c[nH]cn1)C(=O)N[C@@H](Cc1ccccc1)C(=O)N2` [Cyclic [R27H]MCoFx7] (cyclo(ACICRATHFCGSGSDGGICPRIGRLCRRDSDCPG); disulfide 2-19, 4-26, 10-32) returned a Ki of 0.12 ± 0.008 nM.
For `CC[C@H](C)[C@@H]1NC(=O)CNC(=O)CNC(=O)[C@H](CC(=O)O)NC(=O)[C@H](CO)NC(=O)CNC(=O)[C@H](CO)NC(=O)CNC(=O)[C@@H]2CSSC[C@@H]3NC(=O)[C@H](CC(=O)O)NC(=O)[C@H](CO)NC(=O)[C@H](CC(=O)O)NC(=O)[C@H](CCCCN)NC(=O)[C@H](CCCNC(=N)N)NC(=O)[C@@H]4CSSC[C@H](NC(=O)[C@H]([C@@H](C)CC)NC(=O)[C@H](CSSC[C@H](NC1=O)C(=O)N1CCC[C@H]1C(=O)N[C@@H](CCCNC(=N)N)C(=O)N[C@@H]([C@@H](C)CC)C(=O)NCC(=O)N[C@@H](CCCNC(=N)N)C(=O)N[C@@H](CC(C)C)C(=O)N4)NC(=O)[C@H](C)NC(=O)CNC(=O)[C@@H]1CCCN1C3=O)C(=O)N[C@@H](CCCNC(=N)N)C(=O)N[C@@H](C)C(=O)N[C@@H]([C@@H](C)O)C(=O)N[C@@H](CCCNC(=N)N)C(=O)N[C@@H](Cc1ccccc1)C(=O)N2` [Cyclic [R13K]MCoFx7] (cyclo(ACICRATRFCGSGSDGGICPRIGRLCRKDSDCPG); disulfide 2-19, 4-26, 10-32) the value was 0.068 ± 0.003 nM; for `CC[C@H](C)[C@@H]1NC(=O)CNC(=O)CNC(=O)[C@H](CC(=O)O)NC(=O)[C@H](CO)NC(=O)CNC(=O)[C@H](CO)NC(=O)CNC(=O)[C@@H]2CSSC[C@@H]3NC(=O)[C@H](CC(=O)O)NC(=O)[C@H](CO)NC(=O)[C@H](CC(=O)O)NC(=O)[C@H](CCCNC(=N)N)NC(=O)[C@H](CCCNC(=N)N)NC(=O)[C@@H]4CSSC[C@H](NC(=O)[C@H]([C@@H](C)CC)NC(=O)[C@H](CSSC[C@H](NC1=O)C(=O)N1CCC[C@H]1C(=O)N[C@@H](CCCNC(=N)N)C(=O)N[C@@H]([C@@H](C)CC)C(=O)NCC(=O)N[C@@H](CCCNC(=N)N)C(=O)N[C@@H](CC(C)C)C(=O)N4)NC(=O)[C@H](C)NC(=O)CNC(=O)[C@@H]1CCCN1C3=O)C(=O)N[C@@H](CCCNC(=N)N)C(=O)N[C@@H](C)C(=O)N[C@@H]([C@@H](C)O)C(=O)NCC(=O)N[C@@H](Cc1ccccc1)C(=O)N2` [Cyclic [R27G]MCoFx7] (cyclo(ACICRATGFCGSGSDGGICPRIGRLCRRDSDCPG); disulfide 2-19, 4-26, 10-32), 0.21 ± 0.008 nM; for `CC[C@H](C)[C@@H]1NC(=O)CNC(=O)CNC(=O)[C@H](CC(=O)O)NC(=O)[C@H](CO)NC(=O)CNC(=O)[C@H](CO)NC(=O)CNC(=O)[C@@H]2CSSC[C@@H]3NC(=O)[C@H](CC(=O)O)NC(=O)[C@H](CO)NC(=O)[C@H](CC(=O)O)NC(=O)[C@H](CCCNC(=N)N)NC(=O)[C@H](CCC(=O)O)NC(=O)[C@@H]4CSSC[C@H](NC(=O)[C@H]([C@@H](C)CC)NC(=O)[C@H](CSSC[C@H](NC1=O)C(=O)N1CCC[C@H]1C(=O)N[C@@H](CCCNC(=N)N)C(=O)N[C@@H]([C@@H](C)CC)C(=O)NCC(=O)N[C@@H](CCCNC(=N)N)C(=O)N[C@@H](CC(C)C)C(=O)N4)NC(=O)[C@H](C)NC(=O)CNC(=O)[C@@H]1CCCN1C3=O)C(=O)N[C@@H](CCCNC(=N)N)C(=O)N[C@@H](C)C(=O)N[C@@H]([C@@H](C)O)C(=O)N[C@@H](CCCNC(=N)N)C(=O)N[C@@H](Cc1ccccc1)C(=O)N2` [Cyclic [R12E]MCoFx7] (cyclo(ACICRATRFCGSGSDGGICPRIGRLCERDSDCPG); disulfide 2-19, 4-26, 10-32), 0.13 ± 0.007 nM.
In turn, `CC[C@H](C)[C@@H]1NC(=O)CNC(=O)CNC(=O)[C@H](CC(=O)O)NC(=O)[C@H](CO)NC(=O)CNC(=O)[C@H](CO)NC(=O)CNC(=O)[C@@H]2CSSC[C@@H]3NC(=O)[C@H](CC(=O)O)NC(=O)[C@H](CO)NC(=O)[C@H](CC(=O)O)NC(=O)[C@H](CCCNC(=N)N)NC(=O)[C@H]([C@@H](C)O)NC(=O)[C@@H]4CSSC[C@H](NC(=O)[C@H]([C@@H](C)CC)NC(=O)[C@H](CSSC[C@H](NC1=O)C(=O)N1CCC[C@H]1C(=O)N[C@@H](CCCNC(=N)N)C(=O)N[C@@H]([C@@H](C)CC)C(=O)NCC(=O)N[C@@H](CCCNC(=N)N)C(=O)N[C@@H](CC(C)C)C(=O)N4)NC(=O)[C@H](C)NC(=O)CNC(=O)[C@@H]1CCCN1C3=O)C(=O)N[C@@H](CCCNC(=N)N)C(=O)N[C@@H](C)C(=O)N[C@@H]([C@@H](C)O)C(=O)N[C@@H](CCCNC(=N)N)C(=O)N[C@@H](Cc1ccccc1)C(=O)N2` [Cyclic [R12T]MCoFx7] (cyclo(ACICRATRFCGSGSDGGICPRIGRLCTRDSDCPG); disulfide 2-19, 4-26, 10-32) yielded a Ki of 0.065 ± 0.005 nM.
